According to patent US7378397B2 (The Provost, Fellows and Scholars of the College of the …, priority 2000, dated 2008):
Entries after “also recorded” stand apart in the source; their conditions may differ. Where a SMILES comes first, the peptide text is derived from it. [ ]: non-standard residue; d: D form. hPhe = N[C@@H](CCc1ccccc1)C(=O)O; pGlu = O=C1CC[C@@H](C(=O)O)N1; Phg = N[C@H](C(=O)O)c1ccccc1

How the values were obtained:
TRH-DE [1] = target: T1, TRH-DE (Sus scrofa, UniProt A0A287AP33); assay: HPLC assay of peptide hydrolysis by TRH-DE (Glp production); format: biochemical, porcine; details: for hydrolysis by TRH-DE (release of Glp): 1 mM peptide incubated with TRH-DE 18 h at 37° C., HPLC; for Rate of hydrolysis: peptide 1 mM, 37° C., Glp production by HPLC, mean±S.D.
T1 construct: The inventor purified TRH-DE from porcine brain according to purification procedures previously published by Dr. K. Bauer; from tissue; host or cells: porcine brain (TRH-DE); bovine kidney (DPP-IV, gift from Dr. C. H. Williams)
T1 sequence (A0A287AP33 1-1066): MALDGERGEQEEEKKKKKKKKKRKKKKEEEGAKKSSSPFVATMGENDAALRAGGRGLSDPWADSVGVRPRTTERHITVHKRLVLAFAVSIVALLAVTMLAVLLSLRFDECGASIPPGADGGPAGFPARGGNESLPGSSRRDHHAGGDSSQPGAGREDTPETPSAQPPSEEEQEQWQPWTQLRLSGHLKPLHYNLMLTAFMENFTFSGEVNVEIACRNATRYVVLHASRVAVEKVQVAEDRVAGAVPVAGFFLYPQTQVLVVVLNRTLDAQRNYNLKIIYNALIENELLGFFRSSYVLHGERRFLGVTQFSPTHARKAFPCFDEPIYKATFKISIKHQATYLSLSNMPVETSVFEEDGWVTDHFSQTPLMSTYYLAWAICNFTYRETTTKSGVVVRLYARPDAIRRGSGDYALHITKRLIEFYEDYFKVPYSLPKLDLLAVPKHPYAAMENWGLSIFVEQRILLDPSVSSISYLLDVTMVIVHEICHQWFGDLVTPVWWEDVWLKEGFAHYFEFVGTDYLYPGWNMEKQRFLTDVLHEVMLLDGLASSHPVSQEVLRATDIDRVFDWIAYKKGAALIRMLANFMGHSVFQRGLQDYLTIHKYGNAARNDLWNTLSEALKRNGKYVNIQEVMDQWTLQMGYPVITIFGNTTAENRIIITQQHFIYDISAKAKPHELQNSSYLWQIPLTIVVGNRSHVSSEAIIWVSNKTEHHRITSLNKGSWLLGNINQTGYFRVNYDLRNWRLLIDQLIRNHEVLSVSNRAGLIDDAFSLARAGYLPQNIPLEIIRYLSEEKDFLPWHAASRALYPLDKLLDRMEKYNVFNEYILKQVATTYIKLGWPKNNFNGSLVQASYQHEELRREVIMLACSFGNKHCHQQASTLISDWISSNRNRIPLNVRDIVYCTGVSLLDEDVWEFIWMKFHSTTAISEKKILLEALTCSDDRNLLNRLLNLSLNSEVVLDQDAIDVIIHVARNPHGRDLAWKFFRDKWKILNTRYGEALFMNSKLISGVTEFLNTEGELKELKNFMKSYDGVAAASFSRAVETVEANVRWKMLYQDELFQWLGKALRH
Method: (§1) The inventor purified TRH-DE from porcine brain according to purification procedures previously published by Dr. K. Bauer, (Max-Planck-Institut, Hannover, Germany) (1). TRH-DE was purified almost 20,000 fold. […] Dipeptidyl peptidase IV (DPP-IV) (EC 3.4.14.5), purified from bovine kidney (7.7 mg ml^−1, specific activity of 17.5 U mg^−1 with Gly-ProAMC as substrate), was obtained as a gilt from Dr. C. H. Williams (Queen's University Belfast, U.K). (DPP-IV was used as the coupling enzyme used in the fluorometric assays).
(§2) One unit (U) of enzyme activity was defined as that amount catalysing the formation of one μmol of product in one minute under the standard conditions employed. All incubations in the assays described below were carried out in 20 mM potassium phosphate buffer, pH 7.5, at 37° C.
Kinetic analysis of the peptide library using HPLC—The ability of each peptide in the library to act as a TRH-DE substrate was assessed using HPLC. As an initial screen, 1 mM peptide was incubated with 0.8 μg TRH-DE in a total volume of 1 ml for 18 h at 37° C. Control samples were included in which peptide (1 mM) or Glp (0.2 mM-0.8 mM) were incubated under identical conditions in the absence of TRH-DE. TRH-DE activity was terminated by the addition of TFA (0.15% v/v) and samples were then analysed using HPLC as described previously (24). Products resulting from TRH-DE hydrolysis could be separated on a C-18 reverse-phase column (Hypersil, UK) using a linear gradient of 0-70% acetonitrile in 0.08% (v/v) TFA. The concentration of Glp formed by the action of TRH-DE on the peptide library was measured by UV absorbance at 206 nm with a quantitative detection limit of 0.1 mM for a 40 μl injection volume, employing a signal to noise ratio of 10. Following the incubation of each peptide with TRH-DE, evidence of Glp in the sample was taken to indicate that the peptide was a TRH-DE substrate.
The rates of hydrolysis for each of those peptides identified as substrates were then compared by measuring Gip production using microassays with shorter incubation times. In these assays peptide (1 mM) was incubated at 37° C. in a total volume of 100 μl. 0.8-3.2 μg TRH-DE and incubations times of 5 min to 18 h were used routinely. Measurements were made in triplicate. The rate of TRH-OH hydrolysis was also measured by this method.

TRH-DE [2] = target: T1, TRH-DE; assay: continuous coupled fluorometric TRH-DE assay (TRHAMC substrate, DPP-IV coupling enzyme); format: biochemical, porcine; details: for inhibition at 1000 µM: peptide 1 mM, 5 μM TRHAMC substrate
Method: as §1, §2
Kinetic analysis of peptides that are not hydrolysed by TRH-DE. A recently-developed continuous coupled fluorometric assay (23) was used to investigate the ability of those library peptides that were not hydrolysed by TRH-DE to inhibit TRHAMC degradation by TRH-DE. In this assay, TRHAMC is the substrate and dipeptidyl peptidase IV (DPP-IV) (EC 3.4.14.5) is the coupling enzyme. The reaction sequence is:
The reaction was monitored continuously by measuring the increase in AMC fluorescence. A linear progress curve with no discernible lag period was observed when the reaction was monitored over a period of 10 minutes. Nevertheless, data sampling was not commenced until 100 s from the start of the reaction to ensure measurements were taken after a steady state had been reached (see Ref. 23).
In a preliminary experiment, the peptides were screened for their ability to inhibit TRH-DE activity. The initial rate of TRHAMC hydrolysis by TRH-DE was measured by incubating 5 μM TRHAMC with 1.23 μg DPP-IV and 0.32 μg TRH-DE, both in the absence and presence of each library peptide (1 mM final concentration) under standard assay conditions (23). In each case the percentage inhibition (i%) was calculated using the equation i%=100(1-vi/vo), where vi and vo are the initial velocities in the presence and absence of peptide, respectively.
Since these peptides were poor inhibitors they were not examined further. The Ki values for the remainder of the peptides were determined by measuring their effects on TRHAMC degradation by TRH-DE using the continuous assay. Data were collected in duplicate at five different substrate concentrations and at least three different concentrations of each peptide.
Reversibility and time dependence of the inhibition produced by Glp-Gln-ProNH2, Glp-Asn-ProNH2 and Glp-Asn-ProAMC were examined by initially preincubating TRH-DE with each peptide at 37° C. for various periods up to 75 min. To investigate time dependence, the enzyme-peptide solution was subsequently added to the reaction mixture containing TRHAMC, DPP-IV, buffer and peptide, and TRH-DE activity was measured using the continuous assay. The final concentration of Glp-Gln-ProNH2, Glp-Asn-ProNH2 and Glp-Asn-ProAMC used was 400, 160 and 1 μM, respectively. […] TRH-DE activity was not affected by pre-incubation at 37° C.
Fluorescence measurements were made using a Perkin Elmer LS 50B Luminescence Spectrometer fitted with a thernostated cell holder. Wavelengths for excitation and emission were set at 370 nm and 440 nm, respectively, with slit widths of 10 nm and 5 nm, respectively.

[3] = calculated from percent inhibition measured in duplicate at 5 μM substrate

| Compound | Rate of hydrolysis (TRH-DE [1]) | further results |
| --- | --- | --- |
| NC(=O)[C@@H]1CCCN1C(=O)[C@@H](NC(=O)[C@@H]1CCC(=O)N1)c1ccccc1 [Glp-Phg-ProNH2] ([pGlu]-[Phg]-Pro-NH2) |  | hydrolysis by TRH-DE (release of Glp) (TRH-DE [1]): No detectable Glp; Ki (TRH-DE [2]; non-linear regression, five TRHAMC concentrations and at least three peptide concentrations, mean±S.D. (n=3)): 356 ± 19 µM; inhibition at 1000 µM (TRH-DE [2]): 57% |
| NC(=O)[C@@H]1CCCN1C(=O)[C@@H]1CCCN1C(=O)[C@@H]1CCC(=O)N1 [Glp-Pro-ProNH2] ([pGlu]-Pro-Pro-NH2) |  | hydrolysis by TRH-DE (release of Glp) (TRH-DE [1]): No detectable Glp; Ki (TRH-DE [2]; estimated from <20% inhibition at 1 mM peptide with the competitive inhibition relationship): > 1000 µM; inhibition at 1000 µM (TRH-DE [2]): 3% |
| NC(=O)[C@@H]1CCCN1C(=O)[C@H](Cc1ccc(O)cc1)NC(=O)[C@@H]1CCC(=O)N1 [Glp-Tyr-ProNH2] ([pGlu]-Tyr-Pro-NH2) | 0.66 ± 0.04 (5) U mg^−1 |  |
| COc1cccc(NC(=O)[C@@H]2CCCN2C(=O)[C@H](CC(N)=O)NC(=O)[C@@H]2CCC(=O)N2)c1 [m-anisidide] |  | Ki (TRH-DE [2]; [3]): 0.86 µM |
| COc1ccccc1NC(=O)[C@@H]1CCCN1C(=O)[C@H](CC(N)=O)NC(=O)[C@@H]1CCC(=O)N1 [o-anisidide] |  | Ki (TRH-DE [2]; [3]): 11.6 µM |
| COc1ccc(NC(=O)[C@@H]2CCCN2C(=O)[C@H](CC(N)=O)NC(=O)[C@@H]2CCC(=O)N2)cc1 [p-anisidide] |  | Ki (TRH-DE [2]; [3]): 3.24 µM |
| Glp-Ileu-ProNH2 | 0.06 ± 0.00 (4) U mg^−1 |  |
| Glp-NorVal-ProNH2 | 0.04 ± 0.00 (6) U mg^−1 |  |
| [pGlu]-Ala-Pro-NH2 | 0.02 ± 0.00 (3) U mg^−1 | hydrolysis by TRH-DE (release of Glp) (TRH-DE [1]): not completely degraded; also recorded: only partially degraded; Glp produced (TRH-DE [1]; 1 mM peptide, overnight incubation with TRH-DE): 0.2 mM |
| [pGlu]-Arg-Pro-NH2 | 0.41 ± 0.02 (4) U mg^−1 |  |
| [pGlu]-Cys-Pro-NH2 |  | hydrolysis by TRH-DE (release of Glp) (TRH-DE [1]): no detectable cleavage |
| [pGlu]-Leu-Pro-NH2 | 0.14 ± 0.01 (5) U mg^−1 |  |
| [pGlu]-Lys-Pro-NH2 | 0.46 ± 0.02 (3) U mg^−1 |  |
| [pGlu]-Met-Pro-NH2 | 0.21 ± 0.03 (4) U mg^−1 |  |
| [pGlu]-Ser-Pro-NH2 | 0.05 ± 0.00 (3) U mg^−1 |  |
| [pGlu]-Thr-Pro-NH2 | 0.14 ± 0.01 (5) U mg^−1 |  |
| [pGlu]-Val-Pro-NH2 | 0.05 ± 0.00 (3) U mg^−1 |  |
| [pGlu]-[hPhe]-Pro-NH2 | 0.05 ± 0.00 (3) U mg^−1 |  |
